The values below come from US4087328A, “Purification and immobilization of sulfhydryl oxidase” (Research Triangle Institute, priority 1975, dated 1978).

The subject of this test is sulfhydryl oxidase. Put plainly: Effect of metal ions and EDTA on sulfhydryl oxidase activity. Format: biochemical, bovine. On the procedure: In the second method of assay, the rate of O2 consumption was measured with an oscillating platinum electrode using a Gilson model K Oxygraph. In a typical assay, 0.2 ml of enzyme solution was added to 1.5 ml of 0.8 mM GSH which had been equilibrated at 35° in the electrode cell. […] Enzymic reaction rates were calculated from the initial slopes obtained.
Assays were performed in phosphate at pH 7.0 and 35° using 0.8 mM GSH as substrate. An aliquot of the stock enzyme solution was removed and assayed in the presence of 1.0 mM EDTA. […] Controls were prepared using boiled enzyme and also using the dialysate containing the metal ion. In both cases, significant O2 consumption was not observed.

Where [1] appears, read: EDTA-treated enzyme dialyzed against 1.0 mM solution of the metal ion, phosphate pH 7.0, 35°, 0.8 mM GSH.

As for `O=S(=O)([O-])[O-].[Zn+2]` [Zinc sulfate], the Enzyme activity under setting [1] is 0.029 μmol O2 consumed/min.

In turn, `[Cl][Mn][Cl]` [Manganese (II) chloride] had an Enzyme activity under setting [1] of 0.085 μmol O2 consumed/min.

Under setting [1], `[Br][Mo][Br]` [Molybdenum dibromide, molybdenum dibromide] registered an Enzyme activity of 0.008 μmol O2 consumed/min.

Turning to `O=C(O)CN(CCN(CC(=O)O)CC(=O)O)CC(=O)O` [EDTA], the “Effect of EDTA treatment on enzyme activity” value is listed as “complete loss of activity”. This molecule showed an Enzyme activity (pH 7) of 0.012 μmol O2 consumed/min.

Turning to `O=S(=O)([O-])[O-].[Cu+2]` [Copper sulfate], the Enzyme activity under setting [1] was found to be 0.109 μmol O2 consumed/min.

Regarding `[Cl][Co][Cl]` [Cobalt chloride], under setting [1], the Enzyme activity is reported as 0.021 μmol O2 consumed/min.

Regarding Ferrous sulfate, the Enzyme activity under setting [1] came to 0.256 μmol O2 consumed/min. Besides, the “Restoration of activity after EDTA treatment” value (dialysis against 1 μM ferrous sulfate) is “restored”.
